Experimental data from ChEMBL document CHEMBL1201862, “PubChem BioAssay data set” (2004).
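The compound was tested at five concentrations on cells cultured in 96-well plates, with a 48-hour exposure period. GI50: concentration for 50% inhibition of growth.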 The source made the active and inactive calls. Rule as the data show it: active = GI50 up to about 1.1 µM and inactive = higher.

Assays:
Experiment in all cases: NCI-60 cell line screen, 48 h
UACC-62 = system: UACC-62
SF-539 = system: SF-539
SW-620 = system: SW-620
KM12 = system: KM12
SNB-19 = system: SNB-19
Hs-578T = system: Hs-578T
IGROV-1 = system: IGROV-1
NCI-H460 = system: NCI-H460
HOP-62 = system: HOP-62
HCT-116 = system: HCT-116
K562 = system: K562
TK-10 = system: TK-10
RPMI-8226 = system: RPMI-8226
CCRF-CEM = system: CCRF-CEM
MDA-MB-435 = system: MDA-MB-435
DU-145 = system: DU-145
OVCAR-4 = system: OVCAR-4
UO-31 = system: UO-31
SR = system: SR
CAKI-1 = system: CAKI-1
PC-3 = system: PC-3
NCI-H226 = system: NCI-H226
OVCAR-8 = system: OVCAR-8
NCI-H522 = system: NCI-H522
OVCAR-5 = system: OVCAR-5
SK-MEL-5 = system: SK-MEL-5
A549 = system: A549
HT-29 = system: HT-29
LOX IMVI = system: LOX IMVI
HCT-15 = system: HCT-15
Malme-3M = system: Malme-3M
SN12C = system: SN12C
HCC 2998 = system: HCC 2998
SK-MEL-28 = system: SK-MEL-28
MOLT-4 = system: MOLT-4
EKVX = system: EKVX
UACC-257 = system: UACC-257
BT-549 = system: BT-549
OVCAR-3 = system: OVCAR-3
SF-268 = system: SF-268
HOP-92 = system: HOP-92
786-0 = system: 786-0
SK-MEL-2 = system: SK-MEL-2
MDA-MB-231 = system: MDA-MB-231
NCI-H23 = system: NCI-H23
COLO 205 = system: COLO 205
NCI/ADR-RES = system: NCI/ADR-RES
U-251 = system: U-251
RXF 393 = system: RXF 393
SF-295 = system: SF-295
HL-60 = system: HL-60
M14 = system: M14
SNB-75 = system: SNB-75
MCF7 = system: MCF7
ACHN = system: ACHN
T47D = system: T47D
A498 = system: A498
SK-OV-3 = system: SK-OV-3
MDA-N = system: MDA-N

For O=C(c1ccc(Cl)cc1)C(O)c1ccc(Cl)cc1 (stereo not drawn), which GI50 (UACC-62) is on record?
Its GI50 is 42 µM (inactive).

What about the GI50 (SF-539) of the same compound?
Its GI50 is 65.5 µM (inactive).

What about the GI50 (SW-620) of the same compound?
Its GI50 is > 100 µM (inactive).

What about the GI50 (KM12) of the same compound?
The GI50 was 41.6 µM (inactive).

What about the GI50 (SNB-19) of the same compound?
Its GI50 is > 100 µM (inactive).

What about the GI50 (Hs-578T) of the same compound?
Its GI50 is 45.3 µM (inactive).

And the GI50 (IGROV-1)?
The GI50 was 85.3 µM (inactive).

What about the GI50 (NCI-H460) of the same compound?
The GI50 was > 100 µM (inactive).

What about the GI50 (HOP-62) of the same compound?
The GI50 was > 100 µM (inactive).

What about the GI50 (HCT-116) of the same compound?
The GI50 was > 100 µM (inactive).

What about the GI50 (K562) of the same compound?
The GI50 was 30.8 µM (inactive).

And the GI50 (TK-10)?
The GI50 was 63.4 µM (inactive).

And the GI50 (RPMI-8226)?
Its GI50 is 60.4 µM (inactive).

What about the GI50 (CCRF-CEM) of the same compound?
Its GI50 is > 100 µM (inactive).

And the GI50 (MDA-MB-435)?
Its GI50 is > 100 µM (inactive).

And the GI50 (DU-145)?
Its GI50 is 92 µM (inactive).

What about the GI50 (OVCAR-4) of the same compound?
Its GI50 is 86.3 µM (inactive).

And the GI50 (UO-31)?
Its GI50 is > 100 µM (inactive).

And the GI50 (SR)?
The GI50 was 25.4 µM (inactive).

What about the GI50 (CAKI-1) of the same compound?
The GI50 was > 100 µM (inactive).

What about the GI50 (PC-3) of the same compound?
Its GI50 is 46.6 µM (inactive).

What about the GI50 (NCI-H226) of the same compound?
The GI50 was > 100 µM (inactive).

And the GI50 (OVCAR-8)?
Its GI50 is 63.2 µM (inactive).

And the GI50 (NCI-H522)?
Its GI50 is 42 µM (inactive).

And the GI50 (OVCAR-5)?
Its GI50 is > 100 µM (inactive).

And the GI50 (SK-MEL-5)?
Its GI50 is 30.9 µM (inactive).

What about the GI50 (A549) of the same compound?
The GI50 was 59.7 µM (inactive).

And the GI50 (HT-29)?
The GI50 was > 100 µM (inactive).

What about the GI50 (LOX IMVI) of the same compound?
Its GI50 is > 100 µM (inactive).

And the GI50 (HCT-15)?
Its GI50 is over 100 µM.

What about the GI50 (Malme-3M) of the same compound?
The GI50 was 40.3 µM (inactive).

And the GI50 (SN12C)?
The GI50 was > 100 µM (inactive).

And the GI50 (HCC 2998)?
The GI50 was > 100 µM (inactive).

And the GI50 (SK-MEL-28)?
The GI50 was > 100 µM (inactive).

What about the GI50 (MOLT-4) of the same compound?
The GI50 was 24.8 µM (inactive).

And the GI50 (EKVX)?
The GI50 was 34.2 µM (inactive).

What about the GI50 (UACC-257) of the same compound?
The GI50 was 52.8 µM (inactive).

And the GI50 (BT-549)?
The GI50 was 53.8 µM (inactive).

And the GI50 (OVCAR-3)?
The GI50 was 43.8 µM (inactive).

And the GI50 (SF-268)?
Its GI50 is > 100 µM (inactive).

And the GI50 (HOP-92)?
Its GI50 is 30.8 µM (inactive).

What about the GI50 (786-0) of the same compound?
The GI50 was > 100 µM (inactive).

And the GI50 (SK-MEL-2)?
The GI50 was > 100 µM (inactive).

And the GI50 (MDA-MB-231)?
The GI50 was > 100 µM (inactive).

And the GI50 (NCI-H23)?
The GI50 was 70.3 µM (inactive).

And the GI50 (COLO 205)?
The GI50 was > 100 µM (inactive).

What about the GI50 (NCI/ADR-RES) of the same compound?
The GI50 was > 100 µM (inactive).

What about the GI50 (U-251) of the same compound?
The GI50 was > 100 µM (inactive).

What about the GI50 (RXF 393) of the same compound?
Its GI50 is > 100 µM (inactive).

And the GI50 (SF-295)?
The GI50 was > 100 µM (inactive).

And the GI50 (HL-60)?
Its GI50 is 32.5 µM (inactive).

And the GI50 (M14)?
The GI50 was > 100 µM (inactive).

And the GI50 (SNB-75)?
The GI50 was > 100 µM (inactive).

What about the GI50 (MCF7) of the same compound?
Its GI50 is 75.7 µM (inactive).

And the GI50 (ACHN)?
The GI50 was > 100 µM (inactive).

CC(=O)OCC1OC(O[C@@H]2C[C@H]3C(C)(C)[C@H](OC(C)=O)CC[C@]3(C)[C@H]3CC[C@]4(C)C(=CC[C@H]4[C@@H](C)C[C@@H](O)[C@H](O)C(C)(C)O)[C@@]32C)C(O)C(O)C1O (stereo partly drawn) was tested. Which GI50 (UACC-62) did it give?
The GI50 was 16.1 µM (inactive).

And the GI50 (SF-539)?
Its GI50 is 16.4 µM (inactive).

And the GI50 (SW-620)?
Its GI50 is 17.9 µM (inactive).

And the GI50 (SNB-19)?
Its GI50 is 15.1 µM (inactive).

And the GI50 (IGROV-1)?
Its GI50 is 18.6 µM (inactive).

What about the GI50 (NCI-H460) of the same compound?
Its GI50 is 17.5 µM (inactive).

What about the GI50 (HOP-62) of the same compound?
Its GI50 is 15.8 µM (inactive).

What about the GI50 (HCT-116) of the same compound?
Its GI50 is 14.4 µM (inactive).

What about the GI50 (K562) of the same compound?
The GI50 was 18.3 µM (inactive).

And the GI50 (TK-10)?
Its GI50 is 17 µM (inactive).

And the GI50 (RPMI-8226)?
The GI50 was 12.2 µM (inactive).

What about the GI50 (CCRF-CEM) of the same compound?
Its GI50 is 17.6 µM (inactive).

And the GI50 (MDA-MB-435)?
Its GI50 is 14.8 µM (inactive).

And the GI50 (DU-145)?
The GI50 was 17.3 µM (inactive).

What about the GI50 (OVCAR-4) of the same compound?
Its GI50 is 16 µM (inactive).

What about the GI50 (UO-31) of the same compound?
Its GI50 is 17.4 µM (inactive).

And the GI50 (SR)?
Its GI50 is 16.3 µM (inactive).

And the GI50 (CAKI-1)?
Its GI50 is 14.2 µM (inactive).

And the GI50 (PC-3)?
The GI50 was 16.9 µM (inactive).

What about the GI50 (OVCAR-8) of the same compound?
The GI50 was 17.3 µM (inactive).

And the GI50 (NCI-H522)?
The GI50 was 1.67 µM (inactive).

And the GI50 (OVCAR-5)?
Its GI50 is 14.1 µM (inactive).

And the GI50 (HT-29)?
The GI50 was 17.4 µM (inactive).

And the GI50 (LOX IMVI)?
The GI50 was 16.2 µM (inactive).

And the GI50 (HCT-15)?
Its GI50 is 17.3 µM.

What about the GI50 (Malme-3M) of the same compound?
The GI50 was 17.8 µM (inactive).

What about the GI50 (SN12C) of the same compound?
Its GI50 is 17.5 µM (inactive).

And the GI50 (HCC 2998)?
Its GI50 is 20.8 µM (inactive).

And the GI50 (SK-MEL-28)?
The GI50 was 15.9 µM (inactive).

What about the GI50 (MOLT-4) of the same compound?
Its GI50 is 16.8 µM (inactive).

And the GI50 (EKVX)?
Its GI50 is 19.1 µM (inactive).

What about the GI50 (UACC-257) of the same compound?
The GI50 was 19 µM (inactive).

And the GI50 (OVCAR-3)?
Its GI50 is 15.4 µM (inactive).

And the GI50 (SF-268)?
Its GI50 is 15.8 µM (inactive).

What about the GI50 (T47D) of the same compound?
The GI50 was 16.7 µM (inactive).

And the GI50 (HOP-92)?
Its GI50 is 17 µM (inactive).

What about the GI50 (A498) of the same compound?
The GI50 was 19.9 µM (inactive).

And the GI50 (786-0)?
Its GI50 is 16.4 µM (inactive).

And the GI50 (SK-MEL-2)?
The GI50 was 17.4 µM (inactive).

What about the GI50 (MDA-MB-231) of the same compound?
Its GI50 is 16.9 µM (inactive).

And the GI50 (NCI-H23)?
Its GI50 is 18.6 µM (inactive).

And the GI50 (SK-OV-3)?
The GI50 was 18.5 µM (inactive).

And the GI50 (COLO 205)?
Its GI50 is 14 µM (inactive).

What about the GI50 (MDA-N) of the same compound?
Its GI50 is 18.4 µM (inactive).

What about the GI50 (NCI/ADR-RES) of the same compound?
Its GI50 is > 100 µM (inactive).

What about the GI50 (U-251) of the same compound?
Its GI50 is 12.7 µM (inactive).

What about the GI50 (SF-295) of the same compound?
Its GI50 is 18.7 µM (inactive).

What about the GI50 (HL-60) of the same compound?
The GI50 was 15.7 µM (inactive).

What about the GI50 (M14) of the same compound?
Its GI50 is 21.3 µM (inactive).

What about the GI50 (SNB-75) of the same compound?
Its GI50 is 22 µM (inactive).

What about the GI50 (MCF7) of the same compound?
Its GI50 is 17.3 µM (inactive).

What about the GI50 (ACHN) of the same compound?
The GI50 was 16.7 µM (inactive).

What does the source list for CNc1ccc(C(=O)CC(O)CCC(C)C2OC(=O)CC(O)CC(=O)CC(O)CC(O)CC(O)CC(O)CC3(O)CC(O)C(C(=O)NCCN4CCCCC4)C(CC(OC4OC(C)C(O)C(N)C4O)\C=C/C=C\C=C/C=C/C=C/C=C\C=C/C2C)O3)cc1 (stereo not drawn)?
GI50 (KM12): 1.82 µM (inactive); GI50 (K562): 2.07 µM (inactive); GI50 (MDA-MB-435): 1.01 µM (active); GI50 (SR): 0.272 µM (active); GI50 (A498): 0.288 µM (active); GI50 (HL-60): 3.88 µM (inactive)
